Experiment: xn = mol fraction of the nth substance listed
Details: Fluid (supercritical or subcritical phases), Constant-volume piezometry

N [ammonia] + O
Details	mass density [kg/m3]
253.18 K, 483.5 kPa, x1 = 0.1386	956.4
254.14 K, 619.3 kPa, x1 = 0.1386	956.35
257.06 K, 1159.1 kPa, x1 = 0.1386	956.19
259.15 K, 1375.1 kPa, x1 = 0.1086	964.04
259.15 K, 1646.6 kPa, x1 = 0.1386	956.07
260.13 K, 3144.3 kPa, x1 = 0.0999	971.4
260.15 K, 1417.1 kPa, x1 = 0.1086	963.99
260.15 K, 3759 kPa, x1 = 0.0955	968.65
261.02 K, 2146.1 kPa, x1 = 0.1386	955.96
261.14 K, 1483.6 kPa, x1 = 0.1086	963.95
261.15 K, 3146.8 kPa, x1 = 0.0999	971.36
261.15 K, 3737.1 kPa, x1 = 0.0955	968.61
262.12 K, 3739.8 kPa, x1 = 0.0955	968.57
262.15 K, 1572 kPa, x1 = 0.1086	963.9
262.15 K, 3173.9 kPa, x1 = 0.0999	971.31
263.13 K, 1676.5 kPa, x1 = 0.1086	963.85
263.13 K, 1686.6 kPa, x1 = 0.1086	963.85
263.13 K, 3221.1 kPa, x1 = 0.0999	971.27
263.16 K, 3225.1 kPa, x1 = 0.0999	971.27
263.16 K, 3766.5 kPa, x1 = 0.0955	968.52
263.96 K, 16220 kPa, x1 = 0.0606	987.12
264.11 K, 3813.7 kPa, x1 = 0.0955	968.48
264.14 K, 3297.9 kPa, x1 = 0.0999	971.22
264.15 K, 1824.1 kPa, x1 = 0.1086	963.8
265 K, 16117 kPa, x1 = 0.0606	987.08
265.13 K, 3469.4 kPa, x1 = 0.1386	955.71
265.15 K, 1981.7 kPa, x1 = 0.1086	963.75
265.15 K, 3396.5 kPa, x1 = 0.0999	971.17
265.15 K, 3889.7 kPa, x1 = 0.0955	968.43
265.18 K, 5311.9 kPa, x1 = 0.0644	979.94
265.38 K, 8334.6 kPa, x1 = 0.064	980.35
265.62 K, 811.9 kPa, x1 = 0.0591	975.65
265.99 K, 16054 kPa, x1 = 0.0606	987.04
266.12 K, 16223 kPa, x1 = 0.047	989.78
266.14 K, 745.3 kPa, x1 = 0.0591	975.64
266.14 K, 8277 kPa, x1 = 0.064	980.32
266.15 K, 2619 kPa, x1 = 0.0582	979.8
266.63 K, 698.1 kPa, x1 = 0.0591	975.62
267.09 K, 4204.5 kPa, x1 = 0.1386	955.58
267.13 K, 2495.5 kPa, x1 = 0.0582	979.77
267.14 K, 8221.5 kPa, x1 = 0.064	980.28
267.15 K, 298 kPa, x1 = 0.1436	952.4
267.15 K, 2355.6 kPa, x1 = 0.1086	963.64
267.15 K, 3654.7 kPa, x1 = 0.0999	971.07
267.15 K, 16033 kPa, x1 = 0.047	989.74
267.16 K, 634.7 kPa, x1 = 0.0591	975.6
267.17 K, 5193.7 kPa, x1 = 0.0644	979.87
268.02 K, 15974 kPa, x1 = 0.0606	986.96
268.1 K, 7316.4 kPa, x1 = 0.0513	984.85
268.15 K, 723.3 kPa, x1 = 0.1436	952.33
268.17 K, 2415.7 kPa, x1 = 0.0582	979.73
268.17 K, 15948 kPa, x1 = 0.047	989.7
269 K, 15979 kPa, x1 = 0.0606	986.92
269.1 K, 7244.1 kPa, x1 = 0.0513	984.81
269.1 K, 7256.7 kPa, x1 = 0.0513	984.81
269.11 K, 500.6 kPa, x1 = 0.0591	975.52
269.14 K, 2812.6 kPa, x1 = 0.1086	963.53
269.14 K, 5179.9 kPa, x1 = 0.0644	979.78
269.15 K, 1141.1 kPa, x1 = 0.1436	952.26
269.15 K, 4001.7 kPa, x1 = 0.0999	970.97
269.15 K, 8192.6 kPa, x1 = 0.064	980.19
269.15 K, 8194.7 kPa, x1 = 0.064	980.19
269.17 K, 15892 kPa, x1 = 0.047	989.66
269.18 K, 4424 kPa, x1 = 0.0955	968.23
269.19 K, 2364.1 kPa, x1 = 0.0582	979.69
269.2 K, 5071.6 kPa, x1 = 0.1386	955.44
270.13 K, 15862 kPa, x1 = 0.047	989.62
270.14 K, 4346.8 kPa, x1 = 0.0302	991.12
270.15 K, 1609 kPa, x1 = 0.1436	952.18
270.15 K, 7195.1 kPa, x1 = 0.0513	984.77
270.15 K, 15862 kPa, x1 = 0.047	989.62
270.99 K, 16062 kPa, x1 = 0.0606	986.82
271.11 K, 15856 kPa, x1 = 0.047	989.57
271.12 K, 467.5 kPa, x1 = 0.0591	975.44
271.13 K, 15857 kPa, x1 = 0.047	989.57
271.14 K, 3349.5 kPa, x1 = 0.1086	963.41
271.15 K, 2091.5 kPa, x1 = 0.1436	952.11
271.15 K, 3960.4 kPa, x1 = 0.014	996.21
271.15 K, 7177.2 kPa, x1 = 0.0513	984.72
271.15 K, 8265.9 kPa, x1 = 0.064	980.1
271.16 K, 4437.7 kPa, x1 = 0.0999	970.85
271.17 K, 4208.2 kPa, x1 = 0.0302	991.09
271.17 K, 5274.3 kPa, x1 = 0.0644	979.69
271.18 K, 2339.7 kPa, x1 = 0.0582	979.6
271.18 K, 4814.2 kPa, x1 = 0.0955	968.12
272.15 K, 3778.7 kPa, x1 = 0.014	996.18
272.15 K, 4113.5 kPa, x1 = 0.0302	991.05
272.15 K, 7185.7 kPa, x1 = 0.0513	984.68
272.15 K, 15879 kPa, x1 = 0.047	989.53
273.13 K, 4952 kPa, x1 = 0.0999	970.74
273.14 K, 506.6 kPa, x1 = 0.0591	975.35
273.14 K, 4040.3 kPa, x1 = 0.0302	991.01
273.14 K, 16263 kPa, x1 = 0.0606	986.71
273.15 K, 2431.2 kPa, x1 = 0.0582	979.51
273.15 K, 3104.4 kPa, x1 = 0.1436	951.96
273.15 K, 3633.6 kPa, x1 = 0.014	996.14
273.15 K, 3634.2 kPa, x1 = 0.014	996.14
273.15 K, 3935 kPa, x1 = 0.1086	963.29
273.15 K, 7219.4 kPa, x1 = 0.0513	984.63
273.15 K, 8435.9 kPa, x1 = 0.064	980.01
273.17 K, 15928 kPa, x1 = 0.047	989.48
274.14 K, 16000 kPa, x1 = 0.047	989.44
274.15 K, 3992.2 kPa, x1 = 0.0302	990.97
274.15 K, 7279.5 kPa, x1 = 0.0513	984.59
274.99 K, 16547 kPa, x1 = 0.0606	986.61
275.08 K, 7892.7 kPa, x1 = 0.1386	955.03
275.13 K, 677.5 kPa, x1 = 0.0591	975.25
275.14 K, 2612.8 kPa, x1 = 0.0582	979.41
275.15 K, 3430.4 kPa, x1 = 0.014	996.07
275.15 K, 3431.2 kPa, x1 = 0.014	996.07
275.15 K, 3970.2 kPa, x1 = 0.0302	990.93
275.15 K, 4178.5 kPa, x1 = 0.1436	951.81
275.15 K, 4633.1 kPa, x1 = 0.1086	963.16

From the NIST ThermoML archive (doi:10.1007/s10765-005-8590-7)
